# Measured values published in the supplement of paper PMC10331698.
# ± gives the standard deviation of the averaged measurements.
# Assays:
# Test in all cases: level (log10 ratio to DMSO vehicle control); higher = higher biomarker level / cell amount than vehicle control
# [1] = compound: CCOC(=O)CC(=O)C(F)(F)C(F)(F)F [Ethyl pentafluoropropionyl acetate] (in DMSO)
# Description: (§1)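 BioMAP Diversity Plus panel of 12 human primary cell co-culture systems (3C, 4H, LPS, SAg, BT, BF4T, BE3C, CASM3C, HDF3CGF, KF3CT, MyoF, Mphg). Compounds were added 1 h before stimulation and left for 24 h (MyoF 48 h; BT 72 h for soluble read-outs or 6 d for IgG). Biomarkers were read by ELISA, cytotoxicity by SRB, PBMC viability and proliferation by Alamar Blue. Each well value was divided by the mean of 8 DMSO control wells on the same plate and log10 transformed; duplicate blinded samples were tested at 4 concentrations.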
# [2] = compound: C[C@@H]1C[C@H]2[C@@H]3CCC4=CC(=O)C=C[C@]4(C)[C@@]3(F)[C@@H](O)C[C@]2(C)[C@@]1(O)C(=O)COP(=O)(O)O [Dexamethasone sodium phosphate] (in DMSO)
# Description: as §1
# Octafluoroadipic acid = compound: O=C(O)C(F)(F)C(F)(F)C(F)(F)C(F)(F)C(=O)O [Octafluoroadipic acid] (in DMSO)
# Description: as §1
# [3] = compound: O=C(O)C(F)(F)OC(F)(F)C(F)(F)OC(F)(F)C(F)(F)OC(F)(F)C(F)(F)C(F)(F)C(F)(F)F [Perfluoro-3,6,9-trioxatridecanoic acid] (in DMSO); conditions: 6700 nM
# Description: as §1
# [4] = compound: O=S(=O)(O)CCC(F)(F)C(F)(F)C(F)(F)C(F)(F)C(F)(F)C(F)(F)C(F)(F)C(F)(F)F [8:2 Fluorotelomer sulfonic acid] (in DMSO)
# Description: as §1
# [5] = compound: OCC(F)(F)C(F)(F)C(F)(F)C(F)(F)C(F)(F)C(F)(F)CO [1H,1H,8H,8H-Perfluorooctane-1,8-diol] (in DMSO)
# Description: as §1
# [6] = compound: OCC(F)(F)C(F)(F)C(F)(F)C(F)F [1H,1H,5H-Perfluoropentanol] (in DMSO)
# Description: as §1
Test System,level (log10) ([1]; 6700 nM),level (log10) ([1]; 20000 nM),level (log10) ([1]; 60000 nM),level (log10) ([2]; 1500 nM),level (log10) ([2]; 4400 nM),level (log10) ([2]; 13000 nM),level (log10) ([2]; 40000 nM),level (log10) (Octafluoroadipic acid; 6700 nM),level (log10) (Octafluoroadipic acid; 20000 nM),level (log10) (Octafluoroadipic acid; 60000 nM),level (log10) [3],level (log10) ([4]; 6700 nM),level (log10) ([4]; 20000 nM),level (log10) ([4]; 60000 nM),level (log10) ([5]; 6700 nM),level (log10) ([5]; 20000 nM),level (log10) ([5]; 60000 nM),level (log10) ([6]; 6700 nM),level (log10) ([6]; 20000 nM),level (log10) ([6]; 60000 nM)
3C:CCL2/MCP-1,-0.012 ± 0.0042,-0.0185 ± 0.0035,0.002 ± 0.0085,0.012 ± 0.013,-0.0125 ± 0.005,-0.0155 ± 0.00071,-0.004 ± 0.013,-0.0115 ± 0.0064,-0.0105 ± 0.011,0.0135 ± 0.036,0.0155 ± 0.021,-0.01 ± 0.0085,-0.0335 ± 0.021,-0.0185 ± 0.005,-0.006 ± 0.0014,-0.0175 ± 0.0092,0.002 ± 0.027,-0.0055 ± 0.015,0.03 ± 0.024,0.042 ± 0.045
3C:CD54/ICAM-1,-0.0015 ± 0.012,-0.01 ± 0.016,0.0025 ± 0.022,-0.006 ± 0.04,-0.019 ± 0.013,-0.0145 ± 0.022,-0.0125 ± 0.00071,-0.007 ± 0.014,-0.0075 ± 0.018,-0.0065 ± 0.013,0.0005 ± 0.021,-0.008 ± 0.0099,0.003 ± 0.013,0.034 ± 0.0042,0.0045 ± 0.0035,0.0025 ± 0.019,0.0015 ± 0.022,-0.028 ± 0.0085,-0.003 ± 0.0099,0.0125 ± 0.023
3C:CD62E/E-Selectin,-0.0035 ± 0.013,-0.007 ± 0.023,0.011 ± 0.0071,-0.0055 ± 0.011,-0.024 ± 0.024,-0.005 ± 0.024,0.0005 ± 0.0078,-0.029 ± 0.0071,-0.004 ± 0.016,-0.0205 ± 0.0078,-0.0355 ± 0.0092,0.013 ± 0.025,0.0385 ± 0.0021,0.0715 ± 0.0078,0.0005 ± 0.013,-0.007 ± 0.0085,0.015 ± 0.013,-0.018 ± 0.018,-0.015,0.008 ± 0.0014
3C:CD106/VCAM-1,-0.0045 ± 0.0064,-0.008 ± 0.0057,-0.015 ± 0.0071,0.0035 ± 0.043,-0.009 ± 0.016,-0.031 ± 0.017,-0.0265 ± 0.0064,0.0005 ± 0.019,-0.0015 ± 0.0092,0.0055 ± 0.00071,-0.0335 ± 0.023,0.002 ± 0.0014,0.009 ± 0.0028,0.019 ± 0.016,-0.0205 ± 0.0021,-0.018 ± 0.0042,-0.007 ± 0.0057,-0.0245 ± 0.0078,-0.012,0.0075 ± 0.0035
3C:CD141/Thrombomodulin,-0.013 ± 0.0099,-0.0185 ± 0.021,-0.0455 ± 0.00071,0.0105 ± 0.074,-0.015 ± 0.052,-0.0055 ± 0.04,-0.045 ± 0.062,0.0125 ± 0.025,0.016 ± 0.03,0.0195 ± 0.05,-0.0155 ± 0.0021,-0.003 ± 0.024,-0.011 ± 0.034,0.0285 ± 0.037,-0.015 ± 0.0057,-0.0075 ± 0.016,-0.001 ± 0.013,-0.006 ± 0.011,-0.013 ± 0.013,0.0195 ± 0.011
3C:CD142/Tissue Factor,-0.006 ± 0.0071,-0.019 ± 0.031,-0.033,0.034 ± 0.038,0.0265 ± 0.015,0.0335 ± 0.0078,0.0775 ± 0.028,0.02 ± 0.061,0.0375 ± 0.067,0.0085 ± 0.061,-0.0085 ± 0.03,-0.018 ± 0.065,0.001 ± 0.052,-0.0295 ± 0.046,-0.0245 ± 0.026,0.0195 ± 0.026,0.0425 ± 0.012,-0.0095 ± 0.00071,-0.014 ± 0.025,0.021 ± 0.0085
